Tested on: cardiac organoid

## COc1ccc(CCN(C)CCCC(C#N)(c2ccc(OC)c(OC)c2)C(C)C)cc1OC (stereo not shown) [verapamil]
FIG. 13A, heat maps for beating velocity, after drug treatment
  beating velocity after treatment with calcium antagonist: reduced
FIG. 13A, after washing and culturing for 1 hour
  beating velocity after washing: again increased
Comparison of three treatment amount groups (100 nM, 1 μM, 10 μM), FIG. 13B/13C
  conduction displacement after treatment: highest in a 1 μM group
Comparison of three treatment amount groups, FIG. 13B/13C
  conduction displacement after washing: highest in the 1 μM group
Comparison of three treatment amount groups, FIG. 13C
  beat rate variation after washing: highest in the 10 μM group
Inferred from beat rate variation at low treatment amount
  drug toxicity of the heart, comparison: higher than that of nifedipine
Inferred from beat rate variation of the cardiac organoid
  treatment amount at which side effects in the heart in vivo may be caused: ≥ 100 nM
